{
  "source": "paper PMC5218480",
  "about": "(PLoS ONE, 2017)",
  "tested_on": "MV-4-11 cells",
  "assay": "Gene expression microarray analysis (Affymetrix PrimeView) and GSEA",
  "type": "cell-based, human",
  "set-up": "RFU PODN (11730768_x_at) / Fold change /veh PODN (11730768_x_at) / RFU LINC00158 (11744669_a_at) / Fold change /veh LINC00158 (11744669_a_at) / RFU DUSP10 (11751237_a_at) / Fold change /veh DUSP10 (11751237_a_at) / RFU ID3 (11757404_x_at) / Fold change /veh ID3 (11757404_x_at) / RFU PLEKHG5 (11737974_s_at) / Fold change /veh PLEKHG5 (11737974_s_at) / RFU LRRC4B (11730491_at) / Fold change /veh LRRC4B (11730491_at) / RFU GIMAP4 (11747438_a_at) / Fold change /veh GIMAP4 (11747438_a_at) / RFU KRT8 (11758183_x_at) / Fold change /veh KRT8 (11758183_x_at) / RFU CNN1 (11734310_a_at) / Fold change /veh CNN1 (11734310_a_at) / RFU VPS37D (11726825_at) / Fold change /veh VPS37D (11726825_at) / RFU C10orf10 (11716522_x_at) / Fold change /veh C10orf10 (11716522_x_at) / RFU KIR2DL2 /// KIR2DL4 /// KIR2DL5A /// KIR2DL5B /// KIR2DS1 /// KIR2DS2 /// KIR2DS3 /// KIR2DS4 /// KIR3DL3 /// KIR3DL3 /// KIR3DS1 (11738374_at) / Fold change /veh KIR2DL2 /// KIR2DL4 /// KIR2DL5A /// KIR2DL5B /// KIR2DS1 /// KIR2DS2 /// KIR2DS3 /// KIR2DS4 /// KIR3DL3 /// KIR3DL3 /// KIR3DS1 (11738374_at) / RFU C1QL1 (11718748_at) / Fold change /veh C1QL1 (11718748_at) / RFU TMPRSS4 (11747572_a_at) / Fold change /veh TMPRSS4 (11747572_a_at) / RFU HAMP (11756126_x_at) / Fold change /veh HAMP (11756126_x_at) / RFU RNFT2 (11725882_a_at) / Fold change /veh RNFT2 (11725882_a_at) / RFU NR4A2 (11747474_a_at) / Fold change /veh NR4A2 (11747474_a_at) / RFU ABCC12 (11746883_a_at) / Fold change /veh ABCC12 (11746883_a_at) / RFU TMEM136 (11760407_x_at) / Fold change /veh TMEM136 (11760407_x_at) / RFU CLDN22 /// WWC2 (11732394_at) / Fold change /veh CLDN22 /// WWC2 (11732394_at) / RFU HLA-DPB1 (11760878_x_at) / Fold change /veh HLA-DPB1 (11760878_x_at) / RFU SPINT1 (11716480_a_at) / Fold change /veh SPINT1 (11716480_a_at) / RFU GAP43 (11754022_s_at) / Fold change /veh GAP43 (11754022_s_at) / RFU A4GNT (11735810_at) / Fold change /veh A4GNT (11735810_at) / RFU PRB3 (11715151_x_at) / Fold change /veh PRB3 (11715151_x_at) / RFU TUBB4B (11761932_at) / Fold change /veh TUBB4B (11761932_at) / RFU CAPN14 (11732068_a_at) / Fold change /veh CAPN14 (11732068_a_at) / RFU TMCC2 (11721928_a_at) / Fold change /veh TMCC2 (11721928_a_at) / RFU IRGQ (11745062_a_at) / Fold change /veh IRGQ (11745062_a_at) / RFU FAM174B (11720279_a_at) / Fold change /veh FAM174B (11720279_a_at) / RFU TMPRSS4 (11748680_a_at) / Fold change /veh TMPRSS4 (11748680_a_at) / RFU FAM212B (11763350_a_at) / Fold change /veh FAM212B (11763350_a_at) / RFU PLEKHG5 (11743358_a_at) / Fold change /veh PLEKHG5 (11743358_a_at) / RFU ZSCAN30 (11745921_a_at) / Fold change /veh ZSCAN30 (11745921_a_at) / RFU CMKLR1 (11741424_a_at) / Fold change /veh CMKLR1 (11741424_a_at) / RFU LOC101060620 /// MAPK8IP1 (11723275_at) / Fold change /veh LOC101060620 /// MAPK8IP1 (11723275_at) / RFU SPTSSB (11747773_x_at) / Fold change /veh SPTSSB (11747773_x_at) / RFU PRSS12 (11739890_at) / Fold change /veh PRSS12 (11739890_at) / RFU BIN1 (11741810_x_at) / Fold change /veh BIN1 (11741810_x_at) / RFU WNT11 (11732464_a_at) / Fold change /veh WNT11 (11732464_a_at) / RFU C10orf10 (11716521_a_at) / Fold change /veh C10orf10 (11716521_a_at) / RFU C5orf56 (11738089_at) / Fold change /veh C5orf56 (11738089_at) / RFU CYB561 (11721691_x_at) / Fold change /veh CYB561 (11721691_x_at) / RFU ANKRD19P (11752326_a_at) / Fold change /veh ANKRD19P (11752326_a_at) / RFU OR2T12 /// OR2T33 /// OR2T8 (11738714_s_at) / Fold change /veh OR2T12 /// OR2T33 /// OR2T8 (11738714_s_at) / RFU VCAN (11748164_a_at) / Fold change /veh VCAN (11748164_a_at) / RFU JSRP1 (11732532_at) / Fold change /veh JSRP1 (11732532_at) / RFU KRTAP10-11 (11738290_x_at) / Fold change /veh KRTAP10-11 (11738290_x_at) / RFU MYO3A (11730013_a_at) / Fold change /veh MYO3A (11730013_a_at) / RFU EBF3 (11725865_a_at) / Fold change /veh EBF3 (11725865_a_at) / RFU CAMK2N1 (11719241_x_at) / Fold change /veh CAMK2N1 (11719241_x_at) / RFU C5orf56 (11738088_a_at) / Fold change /veh C5orf56 (11738088_a_at) / RFU OLFML3 (11715873_a_at) / Fold change /veh OLFML3 (11715873_a_at) / RFU LOC100653217 /// NTM (11731650_a_at) / Fold change /veh LOC100653217 /// NTM (11731650_a_at) / RFU MAPK11 (11762145_a_at) / Fold change /veh MAPK11 (11762145_a_at) / RFU FIZ1 (11724087_x_at) / Fold change /veh FIZ1 (11724087_x_at) / RFU OASL (11726364_x_at) / Fold change /veh OASL (11726364_x_at) / RFU SOX15 (11748057_x_at) / Fold change /veh SOX15 (11748057_x_at) / RFU CD79A (11719716_a_at) / Fold change /veh CD79A (11719716_a_at) / RFU HIST1H1D (11736915_at) / Fold change /veh HIST1H1D (11736915_at) / RFU CASKIN2 (11723855_a_at) / Fold change /veh CASKIN2 (11723855_a_at) / RFU LOC730098 (11760151_x_at) / Fold change /veh LOC730098 (11760151_x_at) / RFU OR4N2 (11742367_at) / Fold change /veh OR4N2 (11742367_at) / RFU PRRT2 (11749266_a_at) / Fold change /veh PRRT2 (11749266_a_at) / RFU SNX32 (11753110_a_at) / Fold change /veh SNX32 (11753110_a_at) / RFU CDHR5 (11726645_a_at) / Fold change /veh CDHR5 (11726645_a_at) / RFU RCAN1 (11760418_a_at) / Fold change /veh RCAN1 (11760418_a_at) / RFU FAM167A (11723789_a_at) / Fold change /veh FAM167A (11723789_a_at) / RFU FAM26E (11764081_at) / Fold change /veh FAM26E (11764081_at) / RFU ISYNA1 (11749810_s_at) / Fold change /veh ISYNA1 (11749810_s_at) / RFU ACY1 (11761880_at) / Fold change /veh ACY1 (11761880_at) / RFU 11764098_at / Fold change /veh 11764098_at / RFU SAMD14 (11745864_x_at) / Fold change /veh SAMD14 (11745864_x_at) / RFU NPB (11741838_a_at) / Fold change /veh NPB (11741838_a_at) / RFU TMPRSS6 (11731388_a_at) / Fold change /veh TMPRSS6 (11731388_a_at) / RFU KRTAP10-2 (11738614_at) / Fold change /veh KRTAP10-2 (11738614_at) / RFU ARHGAP8 /// PRR5-ARHGAP8 (11727945_x_at) / Fold change /veh ARHGAP8 /// PRR5-ARHGAP8 (11727945_x_at) / RFU KRTAP5-7 /// NADSYN1 (11734609_at) / Fold change /veh KRTAP5-7 /// NADSYN1 (11734609_at) / RFU RASL12 (11751679_a_at) / Fold change /veh RASL12 (11751679_a_at) / RFU CDKN2B (11736163_a_at) / Fold change /veh CDKN2B (11736163_a_at) / RFU PRF1 (11729649_at) / Fold change /veh PRF1 (11729649_at) / RFU, ZNF638 /// ZNF638-IT1 / Fold change vs veh, ZNF638 /// ZNF638-IT1 / RFU, PANK3 / Fold change vs veh, PANK3 / RFU, SH3YL1 / Fold change vs veh, SH3YL1 / RFU, ZEB2 / Fold change vs veh, ZEB2 / RFU, NRIP1 / Fold change vs veh, NRIP1 / RFU, PTTG1IP / Fold change vs veh, PTTG1IP / RFU, CAPN2 / Fold change vs veh, CAPN2 / RFU, MED14 / Fold change vs veh, MED14 / RFU, SNORA58 / Fold change vs veh, SNORA58 / RFU, C1orf63 / Fold change vs veh, C1orf63 / RFU, LRRFIP1 / Fold change vs veh, LRRFIP1 / RFU, NDUFAF7 / Fold change vs veh, NDUFAF7 / RFU, SLC12A2 / Fold change vs veh, SLC12A2 / RFU, IBTK / Fold change vs veh, IBTK / RFU, ESF1 / Fold change vs veh, ESF1 / Fold change vs veh, TMEM50B / RFU, TAOK1 / Fold change vs veh, TAOK1 / RFU, ACBD3 / Fold change vs veh, ACBD3 / RFU, TMA16 / Fold change vs veh, TMA16 / RFU, RWDD3 / Fold change vs veh, RWDD3 / RFU, BCAT1 / Fold change vs veh, BCAT1 / RFU, EDEM3 / Fold change vs veh, EDEM3 / RFU, TMEM33 / Fold change vs veh, TMEM33 / RFU, WDR75 / Fold change vs veh, WDR75 / RFU, AHCTF1 / Fold change vs veh, AHCTF1 / RFU, TFRC / Fold change vs veh, TFRC / RFU, ZDHHC17 / Fold change vs veh, ZDHHC17 / RFU, NOM1 / Fold change vs veh, NOM1 / RFU, ARL8B / Fold change vs veh, ARL8B / RFU, ZBTB11 / Fold change vs veh, ZBTB11 / RFU, TAMM41 / Fold change vs veh, TAMM41 / RFU, KIAA1704 /// LOC100996395 / Fold change vs veh, KIAA1704 /// LOC100996395 / RFU, ING1 / Fold change vs veh, ING1 / RFU, TRMT61B / Fold change vs veh, TRMT61B / RFU, FUBP3 / Fold change vs veh, FUBP3 / RFU, TP53 / Fold change vs veh, TP53 / RFU, TNKS2 / Fold change vs veh, TNKS2 / RFU, ZFP14 / Fold change vs veh, ZFP14 / RFU, ACTR2 / Fold change vs veh, ACTR2 / RFU, PPP3R1 / Fold change vs veh, PPP3R1 / RFU, PIK3R1 / Fold change vs veh, PIK3R1 / RFU, HNRNPA1 / Fold change vs veh, HNRNPA1 / RFU, RNF170 / Fold change vs veh, RNF170 / RFU, ZNF28 / Fold change vs veh, ZNF28 / RFU, RNGTT / Fold change vs veh, RNGTT / RFU, OGT / Fold change vs veh, OGT / RFU, BRD1 / Fold change vs veh, BRD1 / RFU, MARS / Fold change vs veh, MARS / RFU, ZNF655 / Fold change vs veh, ZNF655 / RFU, FAHD1 / Fold change vs veh, FAHD1 / RFU, BDP1 / Fold change vs veh, BDP1 / RFU, LRRCC1 / Fold change vs veh, LRRCC1 / RFU, ARID1A / Fold change vs veh, ARID1A / RFU, ZNF146 / Fold change vs veh, ZNF146 / RFU, ZNF330 / Fold change vs veh, ZNF330 / RFU, GPN3 / Fold change vs veh, GPN3 / RFU, C9orf123 / Fold change vs veh, C9orf123 / RFU, N4BP2L2 / Fold change vs veh, N4BP2L2 / RFU, ARFIP1 / Fold change vs veh, ARFIP1 / RFU, FAM179B / Fold change vs veh, FAM179B / RFU, BCL10 / Fold change vs veh, BCL10 / RFU, UHRF1BP1L / Fold change vs veh, UHRF1BP1L / RFU, BET1 / Fold change vs veh, BET1 / RFU, CNOT2 / Fold change vs veh, CNOT2 / RFU, ZNF268 / Fold change vs veh, ZNF268 / Fold change vs veh, ZNF507 / RFU, DGCR2 / Fold change vs veh, DGCR2 / RFU, WDSUB1 / Fold change vs veh, WDSUB1 / Fold change vs veh, HSP90B1 /// MIR3652 / RFU, ADSS / Fold change vs veh, ADSS / RFU, GK / Fold change vs veh, GK / RFU, ZNF148 / Fold change vs veh, ZNF148 / RFU, TAF9 / Fold change vs veh, TAF9 / RFU, SLC1A5 / Fold change vs veh, SLC1A5 / RFU, SLMO2 / Fold change vs veh, SLMO2 / RFU, ABCC4 / Fold change vs veh, ABCC4 / RFU, LOC101060439 /// RAP1B / Fold change vs veh, LOC101060439 /// RAP1B / RFU, RFX7 / Fold change vs veh, RFX7 / RFU, GTPBP10 / Fold change vs veh, GTPBP10 / RFU, CNEP1R1 / Fold change vs veh, CNEP1R1 / RFU, BIVM-ERCC5 /// ERCC5 / Fold change vs veh, BIVM-ERCC5 /// ERCC5 / RFU, ILF3 / Fold change vs veh, ILF3 / RFU 11762660_at / Fold change /veh 11762660_at / RFU VCAN (11757783_s_at) / Fold change /veh VCAN (11757783_s_at) / RFU DDX43 (11728927_at) / Fold change /veh DDX43 (11728927_at) / RFU KRT8 (11758188_x_at) / Fold change /veh KRT8 (11758188_x_at) / RFU NKD1 (11759106_at) / Fold change /veh NKD1 (11759106_at) / RFU SRD5A1 (11742802_a_at) / Fold change /veh SRD5A1 (11742802_a_at) / RFU TPSAB1 /// TPSB2 (11721975_s_at) / Fold change /veh TPSAB1 /// TPSB2 (11721975_s_at) / RFU GSTM3 (11746129_a_at) / Fold change /veh GSTM3 (11746129_a_at) / RFU IL23R (11737362_x_at) / Fold change /veh IL23R (11737362_x_at) / RFU TMEM51 (11727254_a_at) / Fold change /veh TMEM51 (11727254_a_at) / RFU PIWIL2 (11732686_x_at) / Fold change /veh PIWIL2 (11732686_x_at) / RFU ORM1 (11744905_x_at) / Fold change /veh ORM1 (11744905_x_at) / RFU CCDC152 (11743942_at) / Fold change /veh CCDC152 (11743942_at) / RFU ECM1 (11717891_a_at) / Fold change /veh ECM1 (11717891_a_at) / RFU IL23R (11748794_a_at) / Fold change /veh IL23R (11748794_a_at) / RFU TNFAIP8L3 (11732012_x_at) / Fold change /veh TNFAIP8L3 (11732012_x_at) / RFU MBOAT4 (11741988_at) / Fold change /veh MBOAT4 (11741988_at) / RFU 11764193_at / Fold change /veh 11764193_at / RFU TMEM53 (11763286_at) / Fold change /veh TMEM53 (11763286_at) / RFU MAGEB2 (11727129_at) / Fold change /veh MAGEB2 (11727129_at) / RFU TMEM200A (11744735_a_at) / Fold change /veh TMEM200A (11744735_a_at) / RFU CCDC152 (11751479_a_at) / Fold change /veh CCDC152 (11751479_a_at) / RFU FAM211A (11726209_a_at) / Fold change /veh FAM211A (11726209_a_at) / RFU RGS16 (11746705_a_at) / Fold change /veh RGS16 (11746705_a_at) / RFU VCAN (11755009_s_at) / Fold change /veh VCAN (11755009_s_at) / RFU RHOB (11743442_s_at) / Fold change /veh RHOB (11743442_s_at) / RFU RGS16 (11720943_a_at) / Fold change /veh RGS16 (11720943_a_at) / RFU RGS16 (11720944_at) / Fold change /veh RGS16 (11720944_at) / RFU, VPS4B / Fold change vs veh, VPS4B / RFU, CREB1 / Fold change vs veh, CREB1 / RFU, DNAJC13 / Fold change vs veh, DNAJC13 / RFU, GNAQ / Fold change vs veh, GNAQ / RFU, CDK5R1 / Fold change vs veh, CDK5R1 / RFU, ZRANB3 / Fold change vs veh, ZRANB3 / RFU, CUL4A / Fold change vs veh, CUL4A / RFU, CCNY / Fold change vs veh, CCNY / RFU, UFL1 / Fold change vs veh, UFL1 / RFU, COG3 / Fold change vs veh, COG3 / RFU, DIAPH2 / Fold change vs veh, DIAPH2 / RFU, SKA2 / Fold change vs veh, SKA2 / RFU, AFF3 / Fold change vs veh, AFF3 / RFU, LMF1 / Fold change vs veh, LMF1 / RFU, IPO11 / Fold change vs veh, IPO11 / RFU, DFFB / Fold change vs veh, DFFB / RFU, FOXP1 / Fold change vs veh, FOXP1 / RFU, CARD8 / Fold change vs veh, CARD8 / RFU, STRN3 / Fold change vs veh, STRN3 / RFU, ADK / Fold change vs veh, ADK / RFU, RASSF2 / Fold change vs veh, RASSF2 / RFU, WIPF1 / Fold change vs veh, WIPF1 / RFU, LARP1B / Fold change vs veh, LARP1B / RFU, RASA1 / Fold change vs veh, RASA1 / RFU, RB1 / Fold change vs veh, RB1 / RFU, PPFIA1 / Fold change vs veh, PPFIA1 / RFU, MAT2A / Fold change vs veh, MAT2A / RFU, CCT5 / Fold change vs veh, CCT5 / RFU, WDR92 / Fold change vs veh, WDR92 / RFU, CUX1 / Fold change vs veh, CUX1 / RFU, TTC7A / Fold change vs veh, TTC7A / RFU, TMEM135 / Fold change vs veh, TMEM135 / RFU, DEPTOR / Fold change vs veh, DEPTOR / RFU, CPM / Fold change vs veh, CPM / RFU, DNAJB6 / Fold change vs veh, DNAJB6 / RFU, CACNA2D3 / Fold change vs veh, CACNA2D3 / RFU, DTX4 / Fold change vs veh, DTX4 / RFU, TFCP2 / Fold change vs veh, TFCP2 / RFU, GMCL1 /// GMCL1P1 / Fold change vs veh, GMCL1 /// GMCL1P1 / RFU, AEBP2 / Fold change vs veh, AEBP2 / RFU, SNHG1 /// SNORD22 /// SNORD25 /// SNORD26 /// SNORD27 /// SNORD28 /// SNORD29 /// SNORD31 / Fold change vs veh, SNHG1 /// SNORD22 /// SNORD25 /// SNORD26 /// SNORD27 /// SNORD28 /// SNORD29 /// SNORD31 / Fold change (Aza/veh), C12orf56 (ProbeSet 11735607_a_at) / Fold change (ACY-1035/veh), C12orf56 (ProbeSet 11735607_a_at) / Fold change (Aza/veh), FGFR1OP (ProbeSet 11751329_s_at) / Fold change (ACY-1035/veh), FGFR1OP (ProbeSet 11751329_s_at) / Fold change (Aza/veh), VPS36 (ProbeSet 11739960_a_at) / Fold change (ACY-1035/veh), VPS36 (ProbeSet 11739960_a_at) / RFU SYPL1 (11715823_x_at) / Fold change /veh SYPL1 (11715823_x_at) / RFU IGFBP7 (11715501_s_at) / Fold change /veh IGFBP7 (11715501_s_at) / RFU REEP3 (11722064_at) / Fold change /veh REEP3 (11722064_at) / RFU IGLL1 (11728026_x_at) / Fold change /veh IGLL1 (11728026_x_at): dose or concentration left out as unconfirmed",
  "conditions": "MV-4-11 cells, 48 hours",
  "data": [
    {"smiles": "Nc1ccc(-c2cccs2)cc1NC(=O)c1ccc2c(c1)cc(C1CC1)n2CCN1CCOCC1", "note": "[ACY-1035]", "values": [
      {"measurement": "RFU RASL12 (11751679_a_at)", "result": 18.80, "unit": "RFU"}
    ]}
  ]
}
